Among the test systems are U-251; OVCAR-5; SNB-75; LXFL 529; NCI-H460; UACC-257; HCT-15; ACHN; OVCAR-8; TK-10; COLO 205; SF-268; KM12; SW-620; HOP-62; LOX IMVI; IGROV-1; CAKI-1; PC-3; T47D.
Holding throughout (assay): inhibition of tumour cell growth, NCI panel, 48 h

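Test compounds were applied to cells in 96-well plates for 48 hours at 5 doses. Here, GI50 denotes the concentration required for 50% inhibition of growth.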 Calls of active or inactive are those of the source. Rule as the data show it: active = GI50 up to about 1.1 µM and inactive = higher.

Take `O=C1C=CC(=O)c2c1ccc1c3ccccc3n(-c3ccccn3)c21`: the GI50 with U-251 was > 100 µM (inactive); in the experiment on OVCAR-5, > 100 µM (inactive); in the experiment with SNB-75, > 100 µM (inactive); in the experiment with LXFL 529, 14.8 µM (inactive); with NCI-H460 it was > 100 µM (inactive); in the experiment with UACC-257, 18.5 µM (inactive). Also, the GI50 with HCT-15 is 19.1 µM; in the experiment with ACHN it was 21.2 µM (inactive); in the experiment with OVCAR-8 it was 24.7 µM (inactive); in the experiment with TK-10, 16.7 µM (inactive); with COLO 205, 14.2 µM (inactive); with SF-268, 31.7 µM (inactive). Also, the GI50 with KM12 is > 100 µM (inactive).
Turning to `COc1ccc2c(CCNC(=O)/C=C/c3ccccc3)c(C(C)=O)[nH]c2c1[N+](=O)[O-]`, the GI50 was 34.2 µM (inactive) with U-251; > 10 µM (inactive) in the experiment with OVCAR-5; 10 µM (inactive) in the experiment on LXFL 529; 5.38 µM (inactive) in the experiment on SW-620; 6.12 µM (inactive) with NCI-H460; 8.95 µM (inactive) in the experiment on UACC-257. In addition, the GI50 was 18.8 µM (inactive) in the experiment with HOP-62; 5.64 µM (inactive) in the experiment with LOX IMVI; 18.3 µM (inactive) in the experiment with IGROV-1; 6.89 µM in the experiment on HCT-15; 50.4 µM (inactive) in the experiment with ACHN; 17.9 µM (inactive) with OVCAR-8. In addition, the GI50 with COLO 205 is 8.85 µM (inactive); in the experiment with CAKI-1, 5.28 µM (inactive); with SF-268 it was 4.26 µM (inactive); with KM12, 7.73 µM (inactive).
With `O=S1(=O)NN=C(NCc2ccc(Cl)cc2)c2ccccc21`, the GI50 with U-251 was 50.4 µM (inactive); in the experiment on OVCAR-5 it was > 100 µM (inactive); in the experiment on LXFL 529, 61.1 µM (inactive); in the experiment with SW-620, > 100 µM (inactive); with NCI-H460, > 100 µM (inactive); in the experiment with UACC-257 it was > 100 µM (inactive). Also, the GI50 in the experiment on LOX IMVI is 69 µM (inactive); with IGROV-1, > 100 µM (inactive); in the experiment with HCT-15, 67 µM; with ACHN, > 100 µM (inactive); in the experiment on OVCAR-8, > 100 µM (inactive); in the experiment on COLO 205, > 100 µM (inactive). Moreover, the GI50 in the experiment on CAKI-1, in the experiment on SF-268 and in the experiment on KM12 was > 100 µM (inactive) in each case.
As to `Cc1ccc(NC(=O)CC/C(CC(=O)C(C)(C)C)=N/NC(=O)C(N)=O)cc1C`, the GI50 with U-251, in the experiment on OVCAR-5, in the experiment with SNB-75, with LXFL 529, with SW-620 and in the experiment with NCI-H460 was > 100 µM (inactive) throughout. For the same compound, the GI50 was > 100 µM (inactive) in the experiment on UACC-257; > 100 µM (inactive) in the experiment with HOP-62; > 100 µM (inactive) with IGROV-1; more than 100 µM in the experiment on HCT-15; > 100 µM (inactive) in the experiment with ACHN; > 100 µM (inactive) with OVCAR-8. For the same compound, the GI50 in the experiment on TK-10, in the experiment with COLO 205, in the experiment with CAKI-1, with SF-268 and in the experiment with KM12 was > 100 µM (inactive) throughout.
On to `C[C@]12Cc3conc3C(O)=C1CC[C@@H]1C2CC[C@@]2(C)C1CC[C@]2(C)O` (stereo partly specified), for which the GI50 in the experiment with U-251 was 19.7 µM (inactive); in the experiment with OVCAR-5 it was 29.2 µM (inactive); in the experiment with SNB-75, 10.2 µM (inactive); in the experiment with LXFL 529, 15.1 µM (inactive); with SW-620, 21.1 µM (inactive); with NCI-H460 it was 13.6 µM (inactive). The GI50 in the experiment on UACC-257 was 22.4 µM (inactive); in the experiment on HOP-62, 22.9 µM (inactive); in the experiment with LOX IMVI, 1.79 µM (inactive); with IGROV-1, 19 µM (inactive); in the experiment on HCT-15 it was 10.7 µM; in the experiment on ACHN, 26.5 µM (inactive). For the same compound, the GI50 is 23.4 µM (inactive) with OVCAR-8; 24 µM (inactive) in the experiment on TK-10; 20.4 µM (inactive) with COLO 205; 28.8 µM (inactive) in the experiment with SF-268; 13.7 µM (inactive) with KM12.
As to `Cc1c(C)n(COCCO)c2ncnc(N)c12`, the GI50 with U-251, with SNB-75, with LXFL 529, in the experiment with SW-620, with NCI-H460 and in the experiment on IGROV-1 was > 100 µM (inactive) throughout. Also, the GI50 in the experiment on HCT-15 was more than 100 µM; in the experiment on ACHN, > 100 µM (inactive); in the experiment with OVCAR-8 it was > 100 µM (inactive); in the experiment on TK-10, > 100 µM (inactive); in the experiment on COLO 205 it was > 100 µM (inactive); with CAKI-1 it was > 100 µM (inactive). Besides, the GI50 with SF-268 and in the experiment on KM12 was > 100 µM (inactive) each time.
As for `O=C1OC(=O)C2C1C1C(c3ccccc3)=C(c3ccccc3)C2(O)C2C(=O)OC(=O)C12` (stereo unspecified), the GI50 in the experiment with U-251 is 52.1 µM (inactive); in the experiment with OVCAR-5 it was > 100 µM (inactive); in the experiment with SNB-75, 27.9 µM (inactive); in the experiment with LXFL 529 it was 58.3 µM (inactive); with SW-620, 80.7 µM (inactive); in the experiment with NCI-H460 it was > 100 µM (inactive). Also, the GI50 in the experiment on UACC-257 was > 100 µM (inactive); in the experiment with HOP-62, > 100 µM (inactive); in the experiment with IGROV-1, > 100 µM (inactive); in the experiment on HCT-15 it was more than 100 µM; with ACHN, > 100 µM (inactive); in the experiment on OVCAR-8, 63.8 µM (inactive). The GI50 with TK-10, with COLO 205, in the experiment on CAKI-1, in the experiment on SF-268 and in the experiment with KM12 was > 100 µM (inactive) throughout.
As for `COC(=O)C1=Cc2cn(S(=O)(=O)c3ccc(C)cc3)c3cccc(c23)C(C=C(C)C)N1C(C)=O` (stereo unspecified), the GI50 with U-251 is 45.6 µM (inactive); in the experiment with OVCAR-5, > 100 µM (inactive); with SNB-75, 98.6 µM (inactive); in the experiment on LXFL 529, 32 µM (inactive); in the experiment with SW-620 it was 32.7 µM (inactive); in the experiment on UACC-257, 11.3 µM (inactive). Moreover, the GI50 is > 100 µM (inactive) in the experiment with HOP-62; 71.1 µM (inactive) in the experiment on LOX IMVI; 48.8 µM (inactive) in the experiment on IGROV-1; 18.8 µM (inactive) with ACHN; 84.9 µM (inactive) in the experiment on OVCAR-8; 38.9 µM (inactive) in the experiment with TK-10. The GI50 was 4.71 µM (inactive) in the experiment with COLO 205, 12.6 µM (inactive) with CAKI-1, 93.5 µM (inactive) with SF-268 and > 100 µM (inactive) in the experiment on KM12.
Regarding `NC(=S)Nc1ccc2c(c1)oc1ccccc12`, the GI50 with U-251, in the experiment on OVCAR-5, in the experiment with SNB-75, with SW-620, in the experiment with NCI-H460 and in the experiment on UACC-257 was > 100 µM (inactive) throughout. The GI50 is > 100 µM (inactive) with HOP-62; > 100 µM (inactive) in the experiment with LOX IMVI; > 100 µM (inactive) with PC-3; > 100 µM (inactive) with IGROV-1; 55.1 µM with HCT-15; > 100 µM (inactive) in the experiment with ACHN. For the same compound, the GI50 in the experiment with OVCAR-8 is > 100 µM (inactive); with TK-10, > 100 µM (inactive); with T47D, > 31.5 µM (inactive); with COLO 205, > 100 µM (inactive); in the experiment on CAKI-1 it was > 100 µM (inactive); in the experiment with SF-268 it was > 100 µM (inactive). For the same compound, in the experiment with KM12, the GI50 was > 100 µM (inactive).
Regarding `Fc1ccc(F)c(/C=N/C23CC4CC(CC(C4)C2)C3)c1`, the GI50 in the experiment on U-251, in the experiment on OVCAR-5, with SNB-75, in the experiment with SW-620, in the experiment on NCI-H460 and in the experiment on UACC-257 was > 10 µM (inactive) each time. Besides, the GI50 with HOP-62 was > 10 µM (inactive); in the experiment with LOX IMVI, > 10 µM (inactive); in the experiment with PC-3, > 10 µM (inactive); in the experiment with IGROV-1 it was > 10 µM (inactive); in the experiment on HCT-15, more than 10 µM; in the experiment with ACHN it was > 10 µM (inactive). In addition, the GI50 in the experiment on OVCAR-8, in the experiment on TK-10, in the experiment with T47D, in the experiment on COLO 205, in the experiment with CAKI-1 and in the experiment with SF-268 was > 10 µM (inactive) throughout. Also, the GI50 with KM12 is > 10 µM (inactive).
As to `O=C(NC(=S)Nc1ccc2c(c1)Sc1ccccc1O2)c1ccccc1`, the GI50 with U-251 was 20.7 µM (inactive); with OVCAR-5, 77.3 µM (inactive); in the experiment with SNB-75, 15.7 µM (inactive); with SW-620, 32.1 µM (inactive); in the experiment with NCI-H460, 48 µM (inactive); in the experiment on UACC-257, 33.2 µM (inactive). Further, the GI50 was 27.4 µM (inactive) in the experiment with HOP-62; 39.1 µM (inactive) with LOX IMVI; 11.2 µM (inactive) with PC-3; 29.6 µM (inactive) in the experiment on IGROV-1; 14 µM with HCT-15; 31.3 µM (inactive) in the experiment on ACHN. The GI50 in the experiment on OVCAR-8 was 34.4 µM (inactive); with TK-10, 20.8 µM (inactive); with T47D it was 41.3 µM (inactive); in the experiment with COLO 205 it was 38.8 µM (inactive); in the experiment on CAKI-1, 47.8 µM (inactive); in the experiment on SF-268, 41.4 µM (inactive). Also, the GI50 in the experiment on KM12 was 29.5 µM (inactive).
Take `CCOC(=O)/C=C(/C=C\COC1CCCCO1)c1ccccc1` (stereo unspecified): the GI50 in the experiment with U-251 is 26.1 µM (inactive); with OVCAR-5, 96.2 µM (inactive); in the experiment with SNB-75, 23.4 µM (inactive); with SW-620, 28.3 µM (inactive); in the experiment with NCI-H460, 48.1 µM (inactive); with UACC-257, 56.1 µM (inactive). Besides, the GI50 in the experiment on HOP-62 was > 100 µM (inactive); in the experiment with LOX IMVI it was 15.4 µM (inactive); in the experiment with PC-3 it was 35.6 µM (inactive); in the experiment with IGROV-1, 31.2 µM (inactive); in the experiment with HCT-15, 27.4 µM; in the experiment with ACHN, 48 µM (inactive). Besides, the GI50 in the experiment with OVCAR-8 is 23.1 µM (inactive); with TK-10, > 100 µM (inactive); in the experiment on T47D it was 20.8 µM (inactive); in the experiment with COLO 205 it was > 100 µM (inactive); in the experiment on CAKI-1 it was 33.7 µM (inactive); with SF-268 it was 32.1 µM (inactive). Moreover, in the experiment with KM12, the GI50 is 25.2 µM (inactive).
